# Laboratory results published in US20260234159A1, “SMALL MOLECULE TREATMENT OF FATTY LIVER DISEASE AND HCC” (SCANDIEDGE THERAPEUTICS AB, priority 2023, published 2026).
# pIC50: −log10 of the molar value. Like-named read-outs stand apart in the source and are kept apart here.
# Assays:
# [1] = In vivo biosafety study in rats: histopathological and immunohistochemical examination; set-up: species or system Sprague Dawley male rats; conditions: 30 mg/kg, seven days
# Protocol: In vivo biosafety studies. Healthy Sprague Dawley male rats (12 weeks old, 250-280 g) were obtained from Atatürk University Experimental Research Center ([…] Turkey) and housed under standard environmental conditions (temperature 20° C.-25° C., humidity 50±20% and 12-hour light/dark diurnal cycle). Food and water were available ad libitum. Rats were randomly separated into one control group and two experimental groups (30 mg/kg/day BX-912 or JNK-IN-5A, n=5). […] The control group were received the same amount of vehicle solution only. After 7 days, rats were anaesthetized, and blood samples were collected from the abdominal aorta for biochemical and haematological analysis. The plasma was separated and stored at -80° C. for further analysis. Major organs such as heart, kidney, liver, muscle, adipose, intestine (duodenum, ileum, jejunum), pancreas, colon, and stomach were collected from all the animals for further analysis. Selected organs were fixed in 10% neutral buffered formalin for histopathological examination. Histopathological examination. […] Immunohistochemical examination. […] Slides were counter stained with hematoxylin.
# [2] = tested on: polychromatic erythrocytes; test: Micronucleus frequencies (MNPCEs) as genotoxicity endpoint; format: in vivo, Sprague Dawley male rats; conditions: 30 mg/kg, seven days
# Protocol: In addition to sampling for biochemical and haematological analysis, one drop of blood samples was obtained from the animals for evaluating micronucleus frequencies as genotoxicity endpoint at the end of the experiments. Three different smears of each rat were prepared using pre-coded and cold slides, then the slides air-dried at room temperature, and fixed in ethanol for 10 min, and stained with Giemsa. […] The incidence of MN-PCEs was determined by scoring a total of 3000 PCE per animal and results were expressed as % MN [12].
# HSD fed rats = test: In vivo efficacy study in high sucrose diet (HSD) steatosis rats; conditions: HSD plus 30 mg/kg seven days
# Description: In vivo efficacy studies. After 1-week acclimation period, rats were randomly separated into two groups: control group (n=5) and high sucrose group (n=20). The control group was fed with a standard diet while the others consumed high sucrose diet (HSD). Sucrose was purchased from Sigma Chemical Co. (St Louis, MO, USA) and supplied at the dose of 10% in the drink water for two weeks.
# After 2 weeks, five rats in the HSD group were randomly sacrificed for conformation of NAFLD model. Then, the remaining rats in the HSD group were separated into three sub-groups (n=5): HSD group, HSD plus BX-912 group and HSD plus JNK-IN-5A group. BX-912 and JNK-IN-5A were dissolved in DMSO and were orally administrated using oral gavage for one week (30 mg/kg/day). The HSD group were treated with vehicle solution only.
# At the end of the experiment, rats were sacrificed after being anesthetized. Blood samples were collected from the abdominal aorta and centrifuged at 8000 rpm for 15 min at 4° C. The plasma was separated and stored at −80° C. until further analysis. Other internal organs, including the heart, adipose tissues, liver, kidney, muscle, intestine (duodenum, ileum, jejunum), pancreas, colon and stomach were immediately removed and then snap frozen in liquid nitrogen and stored at −80° C.; the liver was also fixed in 10% formaldehyde for histopathological examination.
# Histopathological examination. The liver tissues were fixed in 10% buffered formaldehyde solution. After fixation, the tissues were passed through graded alcohol and xylene series and embedded in paraffin blocks. 5 micrometer thick sections were taken serially from the paraffin blocks. Histopathological changes were evaluated by performing hematoxylin eosin staining on the sections taken. Sections were evaluated according to histopathological findings as none (−), mild (+), moderate (++) and severe (+++).
# Immunohistochemical examination. After deparaffinization, the slides were immersed in antigen retrieval solution (pH 6.0) and heated in microwave for 15 min to unmask the antigens. The sections were then dipped in 3% H2O2 for 10 min to block endogenous peroxidase activity. Protein block was dropped onto the sections, washed with PBS for 10 min. Primary antibodies (8-OH-dG, Cat No: sc-66036, Diluent Ratio: 1/100, Santa Cruz) were prepared and applied according to the usage conditions. Expose mouse and rabbit specific HRP/DAB detection IHC kit were used as follows: sections were incubated with goat anti-mouse antibody, then with streptavidin peroxidase, and finally with 3,3′ diamino benzidine+chromogen. Slides were counter stained with hematoxylin. Immunoreactivity in the sections were graded as none (−), mild (+), moderate (++) and severe (+++).
# HepG2 cells [3] = test: Triglyceride (TAG) measurement assay, one week steatosis model; format: cell-based, human; conditions: Homo sapiens
# Protocol: (§1) HepG2 wild type cells were purchased from genome engineering company Synthego. Cells were maintained with Roswell Park Memorial Institute growth media, RPMI, 1640 (R2405, Sigma-Aldrich) and supplemented with 10% fetal bovine serum (FBS, F7524, Sigma-Aldrich), 1% penicillin-streptomycin (P/S, P4333, Sigma-Aldrich). Steatosis induction media was prepared as high glucose Dulbecco's Modified Eagle Media (DMEM, D0819, Sigma-Aldrich) with 10% FBS, 1% P/S media supplemented with 10 μg/ml insulin (I9278, Sigma-Aldrich), and 10 μM T0901317 (T2320, Sigma-Aldrich). HepG2 cells were seeded 6×10^4 cells per well for 96-well plate and 1×10^6 cells per well for 6-well plate. HepG2 cells were incubated with steatosis induce media (SM) for one week by 3 day+2 day+2 day with total three times media exchange.
# HepG2 cells were seeded at 6×10^4 cells per well into 96 well plate and induced steatosis for one week with 10 μM of target drugs. After steatosis induction, cells were washed with 200 μl of phosphate buffered saline (PBS) and triglyceride contents was measured by Triglyceride Assay Kit—Quantification (ab65336, Abcam) following manufacturer's instruction. Optical density (O.D) values were detected with microplate reader at 570 nm (Hidex Sense Beta Plus).
# (§2) HepG2 cells were seeded at 60,000 cells per well in 96 well plate. Using steatosis induce media, the cells were treated with 10 μM of target drugs for one week. The media was changed 3 times at day 0, day 3 and day 5. TAG assay was performed using MAK266-1KT SDS Triglyceride Quantification Colorimetric kit and cell viability analysis was performed using MTT assay.
# [4] = MTT cell viability after one week steatosis (ranking of target molecules); format: cell-based, human; conditions: human, HepG2 cells (wild type); HepG2, 10 μM, one week steatosis induce media, MTT; Control 100.00
# Protocol: as §1, §2
# [5] = MTT cell viability / IC50 in growth media; format: cell-based, human; conditions: human, HepG2 cells; 10 μM, treatment for 2 days
# Protocol: (§3) The cytotoxic effects of the synthesized drugs on the HepG2 cells were tested by MTT (Thiazolyl Blue Tetrazolium Bromide) method. HepG2 cells were seeded 2×10^4 cells per well in 96-well plate in 200 μL growth media. […] After the incubation period, 5 mg/ml MTT (M2128, Sigma-Aldrich) solution in PBS (10 μL) was added to each well. After 1 hr, the MTT solution and all media were removed from the wells. 100 μl of DMSO was added and mixed to dissolve the formazan crystals. Cell viability was analysed by measuring the absorbance of the dissolved formazan in a microplate reader at a wavelength of 570 nm with microplate reader (Hidex Sense Beta Plus).
# (§4) HepG2 cells were maintained and used with RPMI 1640 (R2405, Sigma-Aldrich) supplemented with 10% fetal bovine serum (F7524, Sigma-Aldrich), 1% P/S (P4333, Sigma-Aldrich). 20,000 cells per well of HepG2 cells were seeded into a 96-well plate and triplicated for MTT assay and LDH assay. Cell viability was measured by MTT assay (M6494, ThermoFisher) and cytotoxicity was measured by LDH assay kit (ab65393, abcam) by following manufacturer's instructions. Optical density (O.D) was numerated using a microplate reader (Hidex Sense Meta Plus).
# HepG2 cells [6] = test: MTT cell viability / IC50 in growth media; format: cell-based, human
# Protocol: as §3, §4
# JNK1/2/3 = test: Western blot, JNK1/2/3 P54 and p46 isoforms; format: cell-based, human; conditions: 10 μM, 2 days
# Protocol: HepG2 cells were seeded into a 6-well plate at 400,000 cells per well. After treatment with 10 μM of JNK-IN-5A and its derivatives for two days, lysates were harvested with CelLytic M (C2978, Sigma-Aldrich). […] SDS PAGE were performed using Mini-PROTEAN® TGX™ Precast Gels (Bio-Rad) and transferred using Trans-Blot® Turbo™ Transfer System (Bio-Rad). […] ImageQuantTMLAS 500 (29-0050-63, GE) was used to detect protein bands.
# HepG2 cells [7] = test: FACs analysis with PI staining (cell cycle); format: cell-based, human; conditions: PI FACs, 10 μM, 2 days
# Protocol: 400,000 HepG2 cells were seeded in a 6-well plated and treated with 10 μM of the compounds for 2 days. Cells were fixed with 70% ethanol and stained with 50 μg/ml PI. Prepared cells were analysed using BD FACS Canto II Flow Cytometry system at PE-A channel 10,000 cells per group. The data was histogram plotted with BD FACSDiva 9.0.
# HepG2 cells [8] = test: Mitochondrial membrane potential assay (TMRE); format: cell-based, human; conditions: 10 μM, one day
# Protocol: HepG2 cells were seeded into a 6-well plate at 400,000 cells per well. After treatment with the compounds at desired concentration and time, TMRE (ab113852, abcam), Autophagy (ab139484, abcam), ROS (ab113851, abcam), and Lipid peroxidation (ab243377, abcam) assay were performed according to manufacturer's instructions. Fluorescence images were taken using ZOE™ Fluorescent Cell Imager (Biorad) and ROI of fluorescence intensity was measured and calculated by Image J. For microplate reader florescence assay, 40,000 of HepG2 cells were seeded into a 96-well plate and triplicated. GFP (Ex480 nm, Em530 nm) and RFP (Ex549 nm, Em574 nm) were measured using a microplate reader (Hidex Sense Meta Plus).
# HepG2 cells [9] = test: Invasion assay (transwell); format: cell-based, human; conditions: Homo sapiens, HepG2, 24 hr, read-out: invasiveness reduced by
# Protocol: The effects of the treatment with the compounds on the invasion ability of HepG2 and Huh7 cells were determined by 8 μm pores transwell chamber (Corning™ 3464, USA).
# (§5) Transwell membrane was coated with 100 μl collagen (Sigma C3867, USA) diluted with PBS to a concentration of 1 mg/ml. After overnight incubation at 4° C., the collagen solution was discarded and the membrane was washed with PBS. 100,000 cells in 200 μl serum free media together with the tested compounds were added into the upper well and 600 μl of 10% FBS supplemented growth media was added to the lower well as an invasive attractant in a 24-well plate. Cells were incubated at 37° C. in a CO2 incubator for one day. The cells were fixed with 3.7% formaldehyde for 30 minutes at room temperature and washed with PBS twice. The cells were stained with 1% crystal violet in PBS for 20 minutes and residual cells in inner membrane were swabbed gently with a cotton swab. Invaded cells located at the outer membrane were imaged by ZOE Fluorescent Cell Imager (Bio-Rad, USA) and counted by image. For wound healing assay, 100,000 cells per well were seeded into 24-well plates and grown until 95-100% confluent. Linear wound was created by using a 200 μl pipette tip. Image was recorded at the time point of day 0 until control group wound closure with 1 μM of compounds by ZOE Fluorescent Cell Imager (Bio-Rad, USA). Wound areas were measured using ImageJ software.
# HepG2 cells [10] = test: Wound healing assay; format: cell-based; conditions: Homo sapiens, HepG2, 96 h, day 4, untreated 100% wound closure, read-out: wound healing delayed by
# Protocol: as §5
smiles,measurement,setting,value
O=C(Nc1cccc(Nc2ncc(Br)c(NCCc3cnc[nH]3)n2)c1)N1CCCC1 [BX-912],histological structures of major organs,[1],normal histological structures
same,side effects on the rats,[1],no side effects
same,8-OH-dG expression in liver tissues,[1]; IHC,negative
same,genotoxic potential,[2],non-genotoxic
same,frequencies of MNPCEs compared to Ctrl animals,[2]; p>0.05,not statistically different
same,degeneration in hepatocytes in liver tissues,HSD fed rats; HSD 3w severe,Mild
same,degeneration in renal tubule epithelium,HSD fed rats; HSD 3w severe,mild
same,fattening in the parenchyma cells of pancreas tissues,HSD fed rats; HSD 3w severe,mild
same,steatosis in hepatocytes in liver tissues,HSD fed rats; HSD 3w severe,moderate
same,8-OH-dG expression in hepatocytes,HSD fed rats; HSD 3w strong,significantly decreased
N#Cc1c(NC(=O)c2cccc3ccccc23)sc2c1CCN(CC(=O)Nc1ccnc(Cl)n1)C2 [PKL-B172],activity at 10 µM,"HepG2 cells [3]; 168 h, HepG2, 10 μM, one week steatosis induce media, Control 100.00, read-out: TAG (%)",22%
same,activity at 10 µM,"HepG2 cells [3]; HepG2, 168 h, ratio between TAG content and cell viability, Control 100.0, read-out: TAG/cell viability",40.9%
same,"viability at 1 week, 10 µM",[4],53.7%
same,"viability at 2 days, 10 µM",[5],62.7%
same,pIC50,"HepG2 cells [6]; Homo sapiens, 48 h, HepG2, treatment for 2 days, 30 μM to 30 nM",4.88
same,cell viability of HepG2 cells,HepG2 cells [6]; especially in cancerous media,particularly low cell viability
same,JNK1/2/3 p46 expression,JNK1/2/3,not significantly altered
same,Cell population G0/G1,HepG2 cells [7],16.7
same,Cell population G2/M,HepG2 cells [7],73.2
same,Cell population S,HepG2 cells [7],2.7
same,mitochondrial membrane potential,HepG2 cells [8],significantly decreased
same,inhibition at 1 µM,HepG2 cells [9],72.3%
same,inhibition at 1 µM,HepG2 cells [10],60.7%
